The test system of series [1] is mutant pool (Asp41Asn, Glu62Asp, Thr201A and Trp224His Ep mutants). Put plainly: Conversion of sugar phosphates by pooled Ep mutants (FIG. 11). The class given is biochemical, Salmonella enterica LT2. Conditions: 60 μg of each mutant. On the procedure: (§1) FIG. 11. Percent conversion of sugar phosphates according to the present invention by wild-type and mutant enzymes. The alterations from native substrate (Glc-1-P,1) are highlighted in red. For the mutant pool, mutants Asp41Asn, Glu62Asp, Thr201A and Trp224His were pooled, concentrated and an aliquote constituting 60 μg of each mutant (corresponding to 3.5U Ep) was utilized for the assay.
As a rapid means to assay the entire pool of the four newly constructed mutants, the mutants were combined and the mixture directly tested for ability to convert compounds (2), (108), (89), (102), (38), and (127). […] Those substrates turned over include […] and (127), the two sugar phosphates not accepted or poorly accepted by wild-type Ep.
(§2) Assays for product formation and steady state kinetics were accomplished using conditions similar to those described. in Jiang, J., Biggins, J. B. & Thorson, J. S. A General Enzymatic Method for the Synthesis of Natural and “Unnatural” UDP- and TDP-Nucleotide Sugars. J. Am. Chem. Soc. 122, 6803-6804 (2000). For the mutant pool assays, an aliquot which contained an eqimolar ratio of each mutant (60 μg) was utilized.

The target in another series is T1, wild-type Ep (Salmonella typhimurium, UniProt P26393).
T1 construct: made in house; host or cells: E. coli (E. coli-prfbA-C)
As to the kind of experiment: Conversion of sugar phosphates by wild-type enzyme (FIG. 11). The class given is biochemical, Salmonella enterica LT2. On the procedure: as §1
Percent conversion was determined as described in Jiang, J., Biggins, J. B. & Thorson, J. S. A General Enzymatic Method for the Synthesis of Natural and “Unnatural” UDP- and TDP-Nucleotide Sugars. J. Am. Chem. Soc. 122, 6803–6804 (2000).
as §2

The next series concerns the target T2, Ep Trp224His mutant (Salmonella typhimurium, UniProt P26393, W224H).
T2 construct: made in house
Put plainly: Individual mutant analysis: Trp224His. The class given is biochemical, Salmonella enterica LT2. Conditions: deconvolution of the mutant pool.
Excerpt: (§3) Thr102Ala, on the other hand, was responsible for the 2-fold increase in the conversion of (108). […] Yet, cumulatively, this small set of directed mutants was able to successfully turn over three of four targeted “unnatural” substrates. […] This Ep variant will serve as an excellent foundation for second generation double mutants.
as §2

Another series deals with T3, Ep Thr102Ala mutant (Salmonella typhimurium, UniProt P26393, T201A).
T3 construct: made in house
Put plainly: Individual mutant analysis: Thr102Ala. It is filed as biochemical, Salmonella enterica LT2. Conditions: over wild-type Ep.
Excerpt: as §3, §2

For series [2], the target named is T4, Salmonella enterica LT2 α-D-glucopyranosyl phosphate thymidylyltransferase (Ep) (Salmonella typhimurium, UniProt P26393).
T4 construct: made in house; host or cells: E. coli (E. coli-prfbA-C)
Put plainly: Ep-catalyzed conversion of aminodeoxy/acetamidodeoxy sugar phosphates with inorganic pyrophosphatase, HPLC (FIG. 4). It is filed as biochemical. Conditions: for product formation with dTTP: 2.5 mM NTP, 5.0 mM sugar phosphate, 10 U inorganic pyrophosphatase, 30 min, 37° C. As for the experimental part:
To evaluate the synthetic utility of thymidylyl-transferase, purified Ep, α-D-glucopyranosyl phosphate, Mg^+2, NTP and inorganic pyrophosphatase were incubated at 37° C. for 30 min and the extent of product formation determined by HPLC. The inorganic pyrophosphatase was included to drive the reaction forward. A reaction containing 2.5 mM NTP, 5.0 mM sugar phosphate, 5.5 mM MgCl2 and 10 U inorganic pyrophosphatase in a total volume of 50 μL 50 mM potassium phosphate buffer, pH 7.5 at 37° C. was initiated by the addition of 3.52 U Ep (1 U=the amount of protein needed to produce […] TDP-D-glucose min^−1). The reaction was incubated with slow agitation for 30 min at 37° C., quenched with MeOH (50 μL), centrifuged (5 min, 14,000×g) and the supernatant was stored at −20° C. until analysis by HPLC. Samples (30 μL) were resolved on a Sphereclone 5u SAX column (150×4.6 mm) fitted with a SecurityGuard ™ cartridge (Phenomenex; Torrance, Calif.) using a linear gradient (50–200 mM potassium phosphate buffer, pH 5.0, 1.5 mL min^−1, A275 nm).
The results of these assays are illustrated in FIG. 4. For each assay, confirmation of product formation was based upon high resolution mass spectroscopy of HPLC-isolated products and, also in some cases, HPLC co-elution with commercially available standards.
A reaction containing 2.5 mM NTP, 5.0 mM sugar phosphate, 5.5 mM MgCl2 and 10 U inorganic pyrophosphatase in a total volume of 50 μL 50 mM potassium phosphate buffer, pH 7.5 at 37° C. was initiated by the addition of 3.52 U Ep (1 U=the amount of protein needed to produce 1 μmol TDP-α-D-glucose min^−1) The reaction was incubated with slow agitation for 30 min at 37° C., quenched with MeOH (50 μL), centrifuged (5 min, 14,000×g) and the supernatant was stored at −20° C. until analysis by HPLC. Samples (30 μL) were resolved on a Sphereclone 5u SAX column (250×4.6 mm) fitted with a guard column (30×4.6 mm) using a linear gradient (50–200 mM potassium phosphate buffer, pH 5.0, 1.5 mL min^−1, A275 nm).

For series [3], the target named is T4, Salmonella enterica LT2 α-D-glucopyranosyl phosphate thymidylyltransferase (Ep). The class given is biochemical. Conditions: secondary plot of Lineweaver-Burke plots, assays in triplicate.
Excerpt: FIG. 10. […] The conditions for the Ep assay conditions and HPLC resolution of reactants and products were similar to those described in Jiang, J., Biggins, J. B. & Thorson, J. S. A General Enzymatic Method for the Synthesis of Natural and “Unnatural” UDP- and TDP-Nucleotide Sugars. J. Am. Chem. Soc. 122, 6803–6804 (2000).
as §2

For series [4] the target is unchanged. As to the kind of experiment: Ep-catalyzed conversion of α-D-hexopyranosyl phosphates and NTP to NDP-sugars, HPLC (FIG. 2). The class given is biochemical. Conditions: 5 mM NTP, 10 mM sugar phosphate, 30 min, 37° C. An excerpt: FIG. 2. E^p-Catalyzed Conversion of Substrates wherein superscript indicators (a)–(h) are as follows: (a) Percent conversion=[Ap/(AP+AT)]×100, where AP is the NDP-sugar product peak integration and AT represents the NTP peak integration. HRMS for all observed products reported in the supporting information. (b) Standard retention times: TDP, […]; TTP, 7.2 mm; UDP, 4.0 mm; UTP, 6.1 mm. (c) Commercially available. (d) Coelutes with commercially available standard. […] (f) Adjusted for the 2:1 α/β-28. (g) In contrast to previously published studies (See Lindquist, L; Kaiser, R.; Reeves, P. R.; Lindberg, A. A., Eur J. Biochem, 1993, 211, 763–770). (h) No products observed.
To evaluate the synthetic utility of purified thymidylyltransferase, Ep, α-D-hexopyranosyl phosphate, Mg^+2 and NTP were incubated at about 37° C. for about 30 min and the extent of product formation determined by HPLC. The results of these assays are illustrated in FIG. 2. Confirmation of product formation was based upon HPLC co-elution with commercially available standards and/or HPLC isolation and high resolution mass spectroscopy of the product. […] A reaction containing 5 mM NTP, 10 mM sugar phosphate and 5.5 mM MgCl2 in a total volume of 50 μL 50 mM potassium phosphate buffer, pH 7.5 at 37° C. was initiated by the addition of 3.52 U Ep (1 U=the amount of protein needed to produce 1 μmol TDP-D-glucose min^−1). The reaction was incubated with slow agitation for 30 min at 37° C., quenched with MeOH (50 μL), centrifuged (5 min, 14,000×g) and the supernatant was stored at −20° C. until analysis by HPLC. Samples (20 μL) were resolved on a Sphereclone 5 u SAX column (250×4.6 mm) fitted with a guard column (30×4.6 mm) using a linear gradient (20–60 mM potassium phosphate buffer, pH 5.0, 1.5 mL min^−1, A275 nm).

The nature of series [5]: Specific activity of purified Ep (1 U = protein needed to produce 1 μmol TDP-D-glucose min^−1). The class given is biochemical, Salmonella enterica LT2. Conditions: purified to near homogeneity. An excerpt:
Ep is encoded by rmlA, which was previously known as rfbA (Reeves et al. Trends Microbiol. 1996, 4, 495–502). The rmlA-encoded Ep was overexpressed in E. coli to provide the desired Ep as >5% of the total soluble protein. The corresponding Ep was purified to near homogeniety with a specific activity of 110 U mg^−1, a 2-fold improvement over the previously reported values. (See Lindquist, L.; Kaiser, R.; Reeves, P. R.; Lindberg, A. A. Eur. J. Biochem., 1993, 211, 763–770.) An (NH4)2SO4 precipitate of E. coli-prfbA-C crude extracts was dialyzed against buffer B (20 mM Tris.HCl, 1 mM EDTA, pH 7.5) The dialysate was resolved by anion exchange (DE52, 3×15 cm, 50 mL buffer B wash followed by a linear gradient of 0–500 mM NaCl, 1.0 mL min^−1) and the Ep fractions combined, concentrated and further resolved by FPLC gel filtration (S-200, 2×70 cm, 50 mM Tris.HCl, 200 mM NaCl, pH 7.5). The purified Ep was stored in aliquots (−80° C.) until used.
To evaluate the synthetic utility of purified thymidylyltransferase, Ep, α-D-hexopyranosyl phosphate, Mg^+2 and NTP were incubated at about 37° C. for about 30 min and the extent of product formation determined by HPLC. The results of these assays are illustrated in FIG. 2. Confirmation of product formation was based upon HPLC co-elution with commercially available standards and/or HPLC isolation and high resolution mass spectroscopy of the product. […]

By Km is commonly meant the substrate concentration at which the rate is half of its maximum. Usually Vmax stands for the top rate of the reaction or transport when substrate is in excess.

Regarding `O=C(O)[C@H]1O[C@H](OP(=O)(O)O)[C@H](O)[C@@H](O)[C@@H]1O` [compound 127, α-D-glucopyranuronic acid 1-(dihydrogen phosphate)], the “turnover by the mutant pool” value in series [1] is listed as “turned over”. Further, the “acceptance / conversion by wild-type Ep” value at wild-type Ep was “not accepted”. Also, the “conversion by Trp224His mutant” value on Ep Trp224His mutant is recorded as “responsible for converting”.

Regarding `CC(=O)N[C@H]1[C@@H](OP(=O)(O)O)O[C@H](CO)[C@@H](O)[C@@H]1O` [compound 108, 2-acetamido-2-deoxy-α-D-glucopyranosyl phosphate, reference compound], the “increase in conversion by Thr102Ala mutant” value at Ep Thr102Ala mutant stood at 2 fold. The “acceptance / conversion by wild-type Ep” value on wild-type Ep is “poor conversion”. Moreover, the “product formation with dTTP” value in series [2] is recorded as “well-tolerated”.

As to `O=P(O)(O)O[C@H]1O[C@H](CO)[C@@H](O)[C@H](O)[C@H]1O` [compound 2, α-D-glucopyranosyl phosphate], in series [3], the Km was 300 ± 100 µM and the Vmax amounted to 0.03 ± 0.02 mM/min. The “activity as Ep substrate with TTP” value in series [4] is on record as “prefers”.

Take `CC(=O)NC[C@H]1O[C@H](OP(=O)([O-])[O-])[C@H](O)[C@@H](O)[C@@H]1O.[Na+].[Na+]` [compound 86, Disodium-(6-acetamido-6-deoxy-α-D-glucopyranosyl) Phosphate]: the “turnover by the mutant pool” value in series [1] is listed as “turned over”. Also, the “acceptance / conversion by wild-type Ep” value at wild-type Ep is “not well-accepted”. The “product formation with dTTP” value in series [2] is on record as “less activity”. Further, the “increase of product formation with UTP in comparison to dTTP” value in series [2] (FIG. 4) turned out to be 8 fold. Besides, the “conversion by Trp224His mutant” value at Ep Trp224His mutant is on record as “responsible for converting”.

In series [5], “Ep: Salmonella enterica LT2 rmlA-encoded α-D-glucopyranosyl phosphate thymidylyltransferase, overexpressed in E. coli and purified” displayed a specific activity of 110 U mg^−1.
